In US8518942B2, “Caspase inhibitors and uses thereof” (Buck Institute for Research on Aging, priority 2008, dated 2013):

Biological target: T1, caspase-1 (Homo sapiens, UniProt P29466)
T1 construct: purchased EMD Biosciences (San Diego, Calif.)
T1 sequence (P29466 120-297 limits assumed): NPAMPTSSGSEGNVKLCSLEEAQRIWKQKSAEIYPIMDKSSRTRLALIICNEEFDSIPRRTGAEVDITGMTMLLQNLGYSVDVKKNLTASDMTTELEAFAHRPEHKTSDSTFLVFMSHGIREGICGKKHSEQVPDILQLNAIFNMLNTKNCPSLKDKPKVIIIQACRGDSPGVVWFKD
T1 sequence (P29466 317-404 limits assumed): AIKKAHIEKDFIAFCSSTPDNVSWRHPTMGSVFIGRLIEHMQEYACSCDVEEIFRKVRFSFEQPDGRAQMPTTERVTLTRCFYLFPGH
Assay: Irreversible inhibitor kinetic assay (progress curve), caspase-1, substrate Ac-WEHD-AMC
Type: biochemical
Details: casp-1; duplicate, SD included
Excerpt: Caspases-3, -6, -7, -8, and -9 were provided by Guy Salvesen's laboratory at the Burnham Institute (La Jolla, Calif.). Caspase-1 was purchased from EMD Biosciences (San Diego, Calif.) and Caspase-2 was purchased from Biomol International (Plymouth Meeting, Pa.). Caspase substrates Ac-DEVD-AMC, Ac-VDVAD-AFC, and Ac-LEHD-AFC were purchased from EMD Biosciences (San Diego, Calif.) and Ac-VDVAD-AMC was purchased from Biomol International (Plymouth Meeting, Pa.). The proteolytic cleavage of N-acyl aminocoumarins by caspases was conducted in Dynatech Microfluor fluorescence 96-well microtiter plates, and readings were taken on a Molecular Devices Spectra Max Gemini XS instrument. The excitation wavelength was 370 nm and the emission wavelength was 455 nm for AMCA substrates, the excitation wavelength was 355 nm and the emission wavelength was 450 nm for peptidyl AMC substrates, and the excitation wavelength was 430 nm and the emission wavelength was 535 nm for peptidyl AFC substrates.
The kinact/Ki for inhibitors were determined under pseudo-first order conditions using the progress curve method (Eckici et al. (2006) J. Med. Chem., 49: 5728-5749; Bieth (1995) Meth. Enzymol., 248: 59-84). Assay wells contained a mixture of inhibitor and AMC or AFC substrate in buffer. Aliquots of caspase were added to each well to initiate the assay. Hydrolysis of the AMC or AFC substrate was monitored fluorometrically for 45 min. To determine the inhibition parameters, time points for which the control ([I]=0) was linear were used. For each inhibitor, a kobs was calculated for at least four different concentrations of inhibitors via a nonlinear regression of the data according to the equation P=(vi/kobs)[1−exp(−kobst) (where product formation=P, […], and the first-order rate constant=kobs). If kobs varied linearly with [I], then the association constant kass was determined by linear regression analysis using kobs=(kass[I])/(1+[S]/Km) where [S] is the concentration of the substrate. […] Inhibition was measured in duplicate and the average of is reported. […]

Structure (SMILES) | kinact/Ki
C[C@@](NC(=O)CCCC(=O)O)(c1cn([C@@H](CC(=O)O)C(=O)COc2c(F)c(F)cc(F)c2F)nn1)C1CCCCC1 [MJL-002i] | 243,250 ± 350 s^−1/M^−1
C[C@@](NC(=O)Cc1ccccc1)(c1cn([C@@H](CC(=O)O)C(=O)COc2c(F)c(F)cc(F)c2F)nn1)C1CCCCC1 [MJL-003i] | 55,200 ± 200 s^−1/M^−1
C[C@@](NS(=O)(=O)Cc1ccccc1)(c1cn([C@@H](CC(=O)O)C(=O)COc2c(F)c(F)cc(F)c2F)nn1)C1CCCCC1 [MJL-001i] | 55,200 ± 2,600 s^−1/M^−1
